# Assay results as given in patent US20050085531A1, “Thiophene-based compounds exhibiting ATP-utilizing enzyme inhibitory activity, and compositions, and uses thereof” (priority 2003, published 2005).
# Target: AKT1 (Homo sapiens, UniProt P31749)
# Test: HTS off-chip mobility-shift assay, typical screen parameters for AKT1
# Assay type: biochemical
# Details: read-out: inhibition (control inhibitor)
# From the text: The following procedures describe the reagent and plate preparation for a HTS of an ATP-utilizing enzyme, such as a protein kinase, run in an off-chip mobility-shift assay format. The following provides an HTS protocol for running a protein kinase HTS screen on a Caliper HTS 250 microfluidics system. The following parameters are dependent on the protein kinase used and can be determined by one skilled in the art as part of a typical assay development process. For example, the peptide substrate used can be identified from the current literature, by screening a peptide library of potential protein kinase substrates, or by other applicable means accepted in the field.
# The following table provides typical screen assay parameters appropriate for a Caliper HTS 250 microfluidics system used to assay AKT1. Parameters used to assay other protein kinases can be determined by one skilled in the art. […]
# Assays to determine the kinase inhibitory activity of compounds of the present disclosure were performed using a Caliper HTS 250 microfluidics device, Greiner U-bottom assay plates, a Multidrop for transfer of reagents, and Biomek FX (AMNCBM03) software. […] The inhibition of the ATP-utilizing enzyme, such as a particular protein kinase, was determined by measuring the ratio of the peptide substrate to phosphorylated product for each well of the assay plate using the Caliper HTS 250 system.
# Sequence of AKT1 (P31749 whole entry): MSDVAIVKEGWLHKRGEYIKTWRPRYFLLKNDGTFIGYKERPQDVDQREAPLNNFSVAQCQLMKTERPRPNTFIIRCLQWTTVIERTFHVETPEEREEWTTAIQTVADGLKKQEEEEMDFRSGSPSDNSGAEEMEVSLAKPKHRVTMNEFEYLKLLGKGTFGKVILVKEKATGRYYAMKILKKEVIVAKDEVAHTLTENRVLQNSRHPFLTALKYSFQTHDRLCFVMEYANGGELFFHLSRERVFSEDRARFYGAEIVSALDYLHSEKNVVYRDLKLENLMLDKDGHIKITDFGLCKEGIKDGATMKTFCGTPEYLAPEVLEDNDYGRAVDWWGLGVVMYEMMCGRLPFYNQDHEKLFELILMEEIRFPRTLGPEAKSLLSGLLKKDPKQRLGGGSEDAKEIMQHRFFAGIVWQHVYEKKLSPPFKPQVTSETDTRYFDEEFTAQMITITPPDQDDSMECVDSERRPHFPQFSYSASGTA
"inhibition at 20000 µM (inhibitor concentration 20 mM, AKT1 screen)",SMILES,inhibition at 0.138 µM
,CN[C@@H]1C[C@H]2O[C@@](C)([C@@H]1OC)n1c3ccccc3c3c4c(c5c6ccccc6n2c5c31)C(=O)NC4 [Staurosporine],70%
100%,"O=C(O)CN(CCN(CC(=O)O)CC(=O)O)CC(=O)O [EDTA, ethylenediaminetetraacetic acid]",
